In patent publication US20240374590A1, “COMPOSITIONS AND METHODS FOR TREATING CANCER” (A2A PHARMACEUTICALS, INC., priority 2021, published 2024) one finds IC50 data, which are given here for 22 compounds.

Assay [1] relates to JIMT-1 human breast cancer cell line. Description: Cell viability assay (SRB) in JIMT-1. The settings on record: 72 hours after treatment, read-out: JIMT1 IC50. The assay is classed as cell-based. Here is the method: (§1) Human colon carcinoma cell line HCT-116 was a kind gift from Igor Ronninson from University of South Caroli, Columbia, USA. Human breast cancer cell line, JIMT-1 was kindly provided by Ali Osmay Güre from Bilkent University, Ankara, Turkey. Cells were cultured in Dulbecco's modified Eagle's medium (Lonza, NJ, USA), supplemented with 10% fetal bovine serum (FBS, Lonza), 1% non-essential amino acid (NEAA), 2 mM L-glutamine (Sigma Aldrich, MO, USA) and 50 U/ml penicillin/streptomycin (P/S). HCT-116 cells were cultured in McCoy's 5A (modified) (Gibco) medium supplemented with FBS, NEAA, L-glutamine and P/S. All cell lines were tested regularly using MycoAlert Mycoplasma Detection Kit (Lonza). The cumulative length of the cells between thawing and use in the experiments was less than 20 passages.
(§2) Newly synthesized molecules were dissolved in 100% DMSO to yield a stock concentration of 10 mM. For cell viability assay, JIMT-1 (3×10^3 cells/well) and HCT-116 (4×10^3), cells were seeded into 96-well plates, and 24 hours after cell seeding inhibitor treatments were performed at different concentrations. Cell viability was measured 72 hours after treatment with Sulforhodamine B (SRB, Sigma Aldrich) assay as recommended by the manufacturer.

For assay [2], the system named is HCT-116 human colon carcinoma cell line. Description: Cell viability assay (SRB) in HCT-116. The assay is classed as cell-based. Particulars: 72 hours after treatment, read-out: HCT116 IC50. On the procedure: as §1, §2

The term IC50 denotes the concentration that gives 50% inhibition. Consider `COc1ccc(-c2cc(Nc3ccnc(N4C[C@H](C)O[C@@H](C)C4)n3)[nH]n2)c(F)c1` [Compound 150, 2-((2S,6S)-2,6-dimethylmorpholino)-N-(3-(2-fluoro-4-methoxyphenyl)-1H-pyrazol-5-yl)pyrimidin-4-amine], for which the 50% inhibitory concentration (IC50) came to 16 nM in assay [1] and 23 nM in assay [2].
In the same order, the values of `COc1ccc(-c2cc(Nc3ccnc(N4CCCC4)n3)[nH]n2)c(F)c1` [Compound 151, N-(3-(2-fluoro-4-methoxyphenyl)-1H-pyrazol-5-yl)-2-(pyrrolidin-1-yl)pyrimidin-4-amine] are 18 nM and 52 nM.
In the same order, the values of `COc1ccc(-c2cc(Nc3ccnc(N4CCCCC4)n3)[nH]n2)c(F)c1` [Compound 152, N-(3-(2-fluoro-4-methoxyphenyl)-1H-pyrazol-5-yl)-2-(piperidin-1-yl)pyrimidin-4-amine] are 5 nM and 11 nM.
In the case of `COc1ccc(-c2cc(Nc3ccnc(N4CCC4)n3)[nH]n2)c(F)c1` [Compound 153, 2-(azetidin-1-yl)-N-(3-(2-fluoro-4-methoxyphenyl)-1H-pyrazol-5-yl)pyrimidin-4-amine], the half-maximal inhibitory concentration (IC50) in assay [1] was 6 nM; in assay [2], 10 nM.
In the same order, the values of `COc1ccc(-c2cc(Nc3ccnc(N4CCCC4C)n3)[nH]n2)c(F)c1` (centres unmarked) [Compound 159, N-(3-(2-fluoro-4-methoxyphenyl)-1H-pyrazol-5-yl)-2-(2-methylpyrrolidin-1-yl)pyrimidin-4-amine] are 47 nM and 76 nM.
Taken in the same sequence, the figures for `COc1ccc(-c2cc(Nc3ccnc(N4CCC(C)C4)n3)[nH]n2)c(F)c1` (centres unmarked) [Compound 160, N-(3-(2-fluoro-4-methoxyphenyl)-1H-pyrazol-5-yl)-2-(3-methylpyrrolidin-1-yl)pyrimidin-4-amine] were 39 nM and 147 nM.
In the same order, the values of `COc1ccc(-c2cc(Nc3ccnc(N4CCCCCC4)n3)[nH]n2)c(F)c1` [Compound 167, 2-(azepan-1-yl)-N-(3-(2-fluoro-4-methoxyphenyl)-1H-pyrazol-5-yl)pyrimidin-4-amine] are 41 nM and 89 nM.
`COc1ccc(-c2n[nH]c(Nc3ccnc(N4CCOCC4)n3)c2C)cc1` [Compound 181, N-(3-(4-methoxyphenyl)-4-methyl-1H-pyrazol-5-yl)-2-morpholinopyrimidin-4-amine]: the half-maximal inhibitory concentration (IC50) stood at 2630 nM in assay [1] and 4480 nM in assay [2].
In the same order, the values of `COc1ccc(-c2cc(Nc3ccnc(N4CCOCC4)n3)n(C)n2)cc1` [Compound 184, N-(3-(4-methoxyphenyl)-1-methyl-1H-pyrazol-5-yl)-2-morpholinopyrimidin-4-amine] are 8790 nM and 20000 nM.
In the same order, the values of `COc1ccc(-c2cc(Nc3ccnc(N4C[C@@H](C)O[C@@H](C)C4)n3)n(C)n2)c(F)c1` [Compound 187, 2-((2R,6S)-2,6-dimethylmorpholino)-N-(3-(2-fluoro-4-methoxyphenyl)-1-methyl-1H-pyrazol-5-yl)pyrimidin-4-amine] are 158 nM and 228 nM.
In the same order, the values of `COc1ccc(-c2cc(Nc3ccnc(N4C[C@@H](C)O[C@@H](C)C4)n3)nn2C)c(F)c1` [Compound 190, 2-((2R,6S)-2,6-dimethylmorpholino)-N-(5-(2-fluoro-4-methoxyphenyl)-1-methyl-1H-pyrazol-3-yl)pyrimidin-4-amine] are 251 nM and 484 nM.
On to `C[C@@H]1CN(c2nccc(Nc3cc(-c4ccc(C#N)cc4)n[nH]3)n2)C[C@H](C)O1` [Compound 191b, 4-(5-((2-((2R,6S)-2,6-dimethylmorpholino)pyrimidin-4-yl)amino)-1H-pyrazol-3-yl)benzonitrile], for which the IC50 stood at 1570 nM in assay [1] and 1520 nM in assay [2].
Taken in the same sequence, the figures for `C[C@@H]1CN(c2nccc(Nc3cc(-c4ccc(OC(F)(F)F)c(Cl)c4)n[nH]3)n2)C[C@H](C)O1` [Compound 192b, N-(3-(3-chloro-4-(trifluoromethoxy)phenyl)-1H-pyrazol-5-yl)-2-((2R,6S)-2,6-dimethylmorpholino)pyrimidin-4-amine] were 4640 nM and 8970 nM.
In the same order, the values of `C[C@@H]1CN(c2nccc(Nc3cc(-c4ccc(F)cc4)[nH]n3)n2)C[C@H](C)O1` [Compound 196, 2-((2R,6S)-2,6-dimethylmorpholino)-N-(5-(4-fluorophenyl)-1H-pyrazol-3-yl)pyrimidin-4-amine] are 383 nM and 619 nM.
`C[C@@H]1CN(c2nccc(Nc3cc(-c4ccc(C(C)(F)F)cc4)n[nH]3)n2)C[C@H](C)O1` [Compound 200, N-(3-(4-(1,1-difluoroethyl)phenyl)-1H-pyrazol-5-yl)-2-((2R,6S)-2,6-dimethylmorpholino)pyrimidin-4-amine]: the results for the concentration for half-maximal inhibition (IC50) in assay [1] and in assay [2] were 143 nM and 386 nM, respectively.
Taken in the same sequence, the figures for `C[C@@H]1CN(c2nccc(Nc3cc(-c4ccc(OC(F)F)cc4)n[nH]3)n2)C[C@H](C)O1` [Compound 201, N-(3-(4-(difluoromethoxy)phenyl)-1H-pyrazol-5-yl)-2-((2R,6S)-2,6-dimethylmorpholino)pyrimidin-4-amine] were 76 nM and 91 nM.
In the same order, the values of `C[C@@H]1CN(c2nccc(Nc3cc(-c4ccc(C(F)F)cc4)n[nH]3)n2)C[C@H](C)O1` [Compound 202, N-(3-(4-(difluoromethyl)phenyl)-1H-pyrazol-5-yl)-2-((2R,6S)-2,6-dimethylmorpholino)pyrimidin-4-amine] are 187 nM and 722 nM.
In the same order, the values of `COc1cc(-c2cc(Nc3ccnc(N4C[C@@H](C)O[C@@H](C)C4)n3)[nH]n2)cc(OC)c1OC` [Compound 203, 2-((2R,6S)-2,6-dimethylmorpholino)-N-(3-(3,4,5-trimethoxyphenyl)-1H-pyrazol-5-yl)pyrimidin-4-amine] are 1700 nM and 2490 nM.
Regarding `C[C@@H]1CN(c2nccc(Nc3cc(-c4ccc5occc5c4)n[nH]3)n2)C[C@H](C)O1` [Compound 205, N-(3-(benzofuran-5-yl)-1H-pyrazol-5-yl)-2-((2R,6S)-2,6-dimethylmorpholino)pyrimidin-4-amine], the IC50 in assay [1] turned out to be 27 nM; in assay [2] it was 96 nM.
Take `COc1ccc(-c2cc(Nc3ccnc(N4C[C@@H](C)O[C@@H](C)C4)n3)[nH]n2)cc1C(F)(F)F` [Compound 207, 2-((2R,6S)-2,6-dimethylmorpholino)-N-(3-(4-methoxy-3-(trifluoromethyl)phenyl)-1H-pyrazol-5-yl)pyrimidin-4-amine]: the concentration for half-maximal inhibition (IC50) is 974 nM in assay [1] and 5530 nM in assay [2].
Taken in the same sequence, the figures for `C[C@@H]1CN(c2nccc(Nc3cc(-c4ccc(Br)cc4)n[nH]3)n2)C[C@H](C)O1` [Compound 208, N-(3-(4-bromophenyl)-1H-pyrazol-5-yl)-2-((2R,6S)-2,6-dimethylmorpholino)pyrimidin-4-amine] were 212 nM and 448 nM.
For the compound `C[C@@H]1CN(c2nccc(Nc3cc(-c4ccc(OCF)cc4)n[nH]3)n2)C[C@H](C)O1` [Compound 210, 2-((2R,6S)-2,6-dimethylmorpholino)-N-(3-(4-(fluoromethoxy)phenyl)-1H-pyrazol-5-yl)pyrimidin-4-amine], the half-maximal inhibitory concentration (IC50) in assay [1] is 30 nM; in assay [2] it was 31 nM.
